Test system: electrically-induced seizures
Test: Maximal electroshock seizure (MES) threshold test
Format: in vivo
Conditions: 10 mg/kg p.o., mice
Protocol: The maximal electroshock seizure (MES) threshold test in rodents is particularly sensitive for detecting potential anticonvulsant properties^1. In this model, anticonvulsant agents elevate the threshold to electrically—induced seizures whilst proconvulsants lower the seizure threshold.
Mice (male, Charles River, U.K. CD-1 strain, 25-30 g) are randomly assigned to groups of 10-20 and dosed orally or intraperitoneally at a dose volume of 10 ml/kg with various doses of compound (0.3-300 mg/kg) or vehicle. Mice are then subjected at 30 or 60 min post dose to a single electroshock (0.1 sec, 50 Hz, sine wave form) administered via corneal electrodes. The mean current and standard error required to induce a tonic seizure in 50% (CC50) of the mice in a particular treatment group is determined by the ‘up and down’ method of Dixon and Mood (1948)^2. Stastical comparisons between vehicle—and drug—treated groups are made using the method of Litchfield and Wilcoxon (1949)^3.
In control animals the CC50 is usually 14-18 mA. […] If a tonic convulsion does occur, then the current is decreased, and so on until all the animals in the group have been tested.
The percentage increase or decrease in CC50 for each group compared to the control is calculated. […]

Structure (SMILES) | enhanced seizure threshold (percentage increase in CC50 compared to control)
CCc1ccc2c(c1)[C@H](NC(=O)c1ccc(F)cc1)[C@H](O)C(C)(C)O2 (relative stereo) [Example 7, cis-6-Ethyl-4S-(4-fluorobenzoylamino)-3,4-dihydro-2,2-dimethyl-2H-1-benzopyran-3S-ol] | 105%
CC(=O)c1ccc2c(c1)[C@H](NC(=O)c1ccc(F)cc1)[C@H](O)C(C)(C)O2 (relative stereo) [Example 3, cis-6-Acetyl-4S-(4-fluorobenzoylamino)-3,4-dihydro-2,2-dimethyl-2H-1-benzopyran-3S-ol] | 84%
